Like-named read-outs stand apart in the source and are kept apart here.
How the values were obtained:
[1] = tested on: BT-474: Human Breast Cancer Cell; assay: Inhibition of cell proliferation, SRB method, BT-474 cells, 5 days; type: cell-based; details: 120 h, Logit method, read-out: BT474 IC50
Description: 2. Cell Line: BT-474: Human Breast Cancer Cell The cells were incubated with compounds of various concentrations (10-0.001 μm individually) for 5 days. The inhibition of cell proliferation was tested according to the SRB method, and the inhibitory rate was figure out. According to the inhibitory rate, the IC50 was calculated by the Logit method. The anti-tumor activities in vitro were compared.

[2] = tested on: A431 cells (human epidermoid squamous carcinoma cell); assay: Anti-tumor experiment, improved MTT method, A431 cells, 72 h; type: cell-based
Description: The inventive compounds were formulated into 5 concentrations. […] The incubation was continued for another 6 h, and 100 μl SDS was added to end the reaction.
1. Cell Line: A431 Human Epidermoid Squamous Carcinoma Cell

[3] = tested on: human skin squamous cancer cell A431 grafted in a nude mouse; assay: Anti-tumor effect on human skin squamous cancer cell A431 grafted in a nude mouse; type: in vivo
Description: A well-growth solid tumor of A431 was selected and incised into several pieces with the size of 2-3 mm; each was grafted into the right armpit of a mouse subcutaneously with a trocar respectively. 5 After 7days, the test compounds were administrated by gastric perfusion through the mouth for 13 days continuously. The long span (a) and the short span (b) of the tumor were measured with a vernier caliper every 4 days. According to the formula V=ab^2/2, the volume (mm^3) of the tumor could be calculated. The test animals were neck-off killed 23 days after the grafting. The test animals were anatomized to obtain the tumor. The tumors were weighed and the inhibitory rate was calculated.

Erb-B2 = target: T1, Erb-B2 (Homo sapiens, UniProt P04626); assay: Inhibitory effect on the phosphorylation activity of Erb-B2 in BT474 cells (SDS-PAGE/blot, ECL); type: cell-based; details: BT474 cells treated […]; FIG. 1; comparison with Iressa
T1 construct: After treated with various compounds for 1.5 h, the cells were collected, cracked; endogenous in cells; host or cells: BT474 human breast cancer cells
T1 sequence (P04626 23-1255): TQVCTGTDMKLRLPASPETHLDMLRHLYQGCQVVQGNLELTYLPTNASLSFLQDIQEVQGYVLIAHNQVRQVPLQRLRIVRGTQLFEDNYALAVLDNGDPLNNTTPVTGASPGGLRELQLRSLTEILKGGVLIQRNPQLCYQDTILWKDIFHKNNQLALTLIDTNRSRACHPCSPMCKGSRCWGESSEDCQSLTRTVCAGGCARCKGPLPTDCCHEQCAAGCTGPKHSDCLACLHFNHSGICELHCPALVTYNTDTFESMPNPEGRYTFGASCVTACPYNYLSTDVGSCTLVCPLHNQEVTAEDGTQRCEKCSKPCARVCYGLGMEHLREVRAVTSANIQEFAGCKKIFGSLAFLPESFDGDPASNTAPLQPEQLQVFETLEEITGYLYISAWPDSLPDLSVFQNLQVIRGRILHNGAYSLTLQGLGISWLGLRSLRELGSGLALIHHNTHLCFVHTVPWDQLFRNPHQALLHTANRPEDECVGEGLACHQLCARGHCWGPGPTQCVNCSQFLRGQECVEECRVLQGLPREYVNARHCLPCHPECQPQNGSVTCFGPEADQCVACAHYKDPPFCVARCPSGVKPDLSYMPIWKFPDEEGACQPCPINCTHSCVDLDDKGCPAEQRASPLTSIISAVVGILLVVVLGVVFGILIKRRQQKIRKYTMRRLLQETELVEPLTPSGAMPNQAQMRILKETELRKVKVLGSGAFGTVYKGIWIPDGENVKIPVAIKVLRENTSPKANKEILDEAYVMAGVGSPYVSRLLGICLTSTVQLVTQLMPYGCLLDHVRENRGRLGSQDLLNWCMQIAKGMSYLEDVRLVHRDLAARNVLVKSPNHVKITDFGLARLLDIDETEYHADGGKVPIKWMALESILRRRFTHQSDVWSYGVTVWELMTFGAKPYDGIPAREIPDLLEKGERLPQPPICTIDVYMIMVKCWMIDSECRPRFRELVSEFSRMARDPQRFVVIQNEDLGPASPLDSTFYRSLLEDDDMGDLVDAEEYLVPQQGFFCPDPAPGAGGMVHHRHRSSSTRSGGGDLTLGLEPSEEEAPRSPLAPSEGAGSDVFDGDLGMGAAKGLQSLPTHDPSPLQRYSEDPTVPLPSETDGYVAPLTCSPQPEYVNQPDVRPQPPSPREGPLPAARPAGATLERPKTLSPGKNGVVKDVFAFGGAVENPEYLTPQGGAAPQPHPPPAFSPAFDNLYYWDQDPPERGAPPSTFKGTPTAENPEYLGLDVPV
Description: The inhibitory effect of compound 8 and compound 14 on the phosphorylation activity of Erb-B2: The concentration of the human breast cancer cells BT474 were adjusted to a suitable concentration, and inoculated into a plate. After treated with various compounds for 1.5 h, the cells were collected, cracked and the protein was adjusted to the same quantity. Following the protein-denaturation, SDS-PAGE was conducted, and transferred to nitric acid cellulose film; Hybriding with the anti-phosphorylation antibody (mono-anti), anti-β-tublin antibody (mono-anti) and anti-mouse-IgG antibody (bi-anti) respectively; Assayed by the ECL kit and the X-ray plate was exposed. According to the size and the density of the corresponding protein band, the inhibitory effect on Erb-B2 kinases can be evaluated.

[4] = A431 cells, * = two results from two experiments, read-out: A431 IC50
[5] = Homo sapiens, A-431, 72 h, A431 cells, 72 h, class symbols, read-out: IC50
[6] = Homo sapiens, A-431, A431 cells, * = two results from two experiments, read-out: A431 IC50

Row | IC50 [1] [µM] | IC50 [2, 5] [µM] | IC50 [2, 6] [µM] | SMILES | also measured
1 | 0.001 | < 1 | 0.18 | C=CC(=O)Nc1ccc2ncnc(Nc3ccc(OCc4cccc(F)c4)c(Cl)c3)c2c1 [Example 8, N-{4-[3-chloro-4-(3-fluorobenzyloxy)-phenylamino]-quinazolin6-yl}-acrylamide] | IC50 [2, 4]: 0.11 µM; inhibition % ([3]; 25 mg/kg ig × 13, by tumor weight): 29.99%; Weight of the tumor (g) x ± SD ([3]; 25 mg/kg ig × 13, day 23 after grafting): 0.79 ± 0.20 g; Weight of the test animals (g) (tumor-off) ([3]; 25 mg/kg ig × 13, nude mouse A431 graft): 21.58 ± 2.18 g; inhibition % ([3]; 50 mg/kg ig × 13, by tumor weight): 38.67%; Weight of the tumor (g) x ± SD ([3]; 50 mg/kg ig × 13, day 23 after grafting): 0.69 ± 0.17 g; Weight of the test animals (g) (tumor-off) ([3]; 50 mg/kg ig × 13, nude mouse A431 graft): 22.87 ± 3.96 g; inhibition % ([3]; 100 mg/kg ig × 13, by tumor weight): 43.63%; Weight of the tumor (g) x ± SD ([3]; 100 mg/kg ig × 13, day 23 after grafting): 0.64 ± 0.23 g; Weight of the test animals (g) (tumor-off) ([3]; 100 mg/kg ig × 13, nude mouse A431 graft): 22.13 ± 1.83 g; inhibitory activity on phosphorylation of Erb-B2 compared with Iressa (Erb-B2): more superior inhibitory activity
2 | 0.28 | 1 to 10 | 1.22 | Cc1ccc(S(=O)(=O)Nc2ccc3ncnc(Nc4ccc(OCc5cccc(F)c5)c(Cl)c4)c3c2)cc1 [Example 9, N-{4-[-3-chloro-4-(3-fluorobenzyloxy)-phenylamino]-quinazolin-6-yl}-p-methylbenzenesulfonamide] | 
3 |  | 10 to 50 |  | CN(C)C/C=C/C(=O)Nc1ccc2ncnc(Nc3ccc(OCc4cccc(F)c4)c(Cl)c3)c2c1 [Example 10, N-{4-[3-chloro-4-(3-fluorobenzyloxy)-phenylamino]-quinazolin-6-yl}-E,4-(dimethylamino)-but-2-enamide] | 
4 |  | < 1 |  | CN(C)C/C=C/C(=O)Nc1cc2c(Nc3ccc(OCc4cccc(F)c4)c(Cl)c3)ncnc2cc1OCC(F)(F)F [Example 12] | 
5 |  | 1 to 10 |  | COc1cc2ncnc(Nc3ccc(OCc4cccc(F)c4)c(Cl)c3)c2cc1NC(=O)/C=C/CN(C)C [Example 13, N-{4-[3-chloro-4-(3-fluorobenzyloxy)-phenylamino]-7-methoxy-quinazolin-6-}-E-4-(dimethylamino)-but-2-enamide] | 
6 | 0.0069 | 1 to 10 | 1.72 | C=CC(=O)Nc1cc2c(Nc3ccc(OCc4cccc(F)c4)c(Cl)c3)ncnc2cc1OC [Example 14] | inhibitory activity on phosphorylation of Erb-B2 compared with Iressa (Erb-B2): more superior inhibitory activity
7 |  | 1 to 10 |  | CN(C)C/C=C/C(=O)Nc1cc2c(Nc3ccc(OCc4cccc(F)c4)c(Cl)c3)ncnc2cc1Cl [Example 15, N-{4-[3-chloro-4-(3-fluorobenzyloxy)-phenylamino]-7-chloro-quinazolin-6-yl}-E,4-(dimethylamino)-but-2-enamide] | 
8 |  | 1 to 10 |  | C=CC(=O)Nc1cc2c(Nc3ccc(OCc4cccc(F)c4)c(Cl)c3)ncnc2cc1Cl [Example 16, N-{4-[3-chloro-4-(3-fluorobenzyloxy)-phenylamino]-7-chloro-quinazolin-6-yl}-acrylamide] | 
9 | 0.043 | < 1 | 3.48 | CC(=O)Oc1ccc2ncnc(Nc3ccc(OCc4cccc(F)c4)c(Cl)c3)c2c1 [Example 17, O-{4-[-3-chloro-4-(3-fluorobenzyloxy)-phenylamino]-quinazolin-6-yl}-acetate] | 
10 |  | 10 to 50 |  | Oc1ccc2ncnc(Nc3ccc(OCc4cccc(F)c4)c(Cl)c3)c2c1 [Example 18, 4-[3-chloro-4-(3-fluorobenzyloxy)-phenylamino]-6-hydroxy-quinazoline] | 
11 | 0.079 | < 1 | 1.69 | Fc1cccc(COc2ccc(Nc3ncnc4ccc(OCCCN5CCOCC5)cc34)cc2Cl)c1 [Example 20, 4-[3-chloro-4-(3-fluorobenzyloxy)-phenylamino]-6-[3-(4-morpholino)-propoxy]-quinazoline] | 
12 | 0.19 | 1 to 10 | 2.21 | COc1cc2ncnc(Nc3ccc(OCc4cccc(F)c4)c(Cl)c3)c2cc1OC [Example 21, 4-[3-chloro-4-(3-fluorobenzyloxy)-phenylamino]-6,7-dimethoxy-quinazoline] | 
13 |  | 10 to 50 |  | Fc1cccc(COc2ccc(Nc3ncnc4ccc(Br)cc34)cc2Cl)c1 [Example 22, 4-[3-chloro-4-(3-fluorobenzyloxy)-phenylamino]-6-bromo-quinazoline] | 
14 | 0.17 | 10 to 50 | 24 | COc1ccc(-c2ccc3ncnc(Nc4ccc(OCc5cccc(F)c5)c(Cl)c4)c3c2)cc1 [Example 23, 4-[3-chloro-4-(3-fluorobenzyloxy)-phenylamino]-6-(4-methoxy-phenyl)-quinazoline] | 
15 | 0.086 | 1 to 10 | 3.87 | OCc1cccc(-c2ccc3ncnc(Nc4ccc(OCc5cccc(F)c5)c(Cl)c4)c3c2)c1 [Example 24, 4-[3-chloro-4-(3-fluorobenzyloxy)-phenylamino]-6-(3-hydroxymethyl-phenyl)-quinazoline] | 
16 | 6.63 | 1 to 10 | 4.04 | COCCOCc1cccc(-c2ccc3ncnc(Nc4ccc(OCc5cccc(F)c5)c(Cl)c4)c3c2)c1 [Example 26, 4-[3-chloro-4-(3-fluorobenzyloxy)-phenylamino]-6-[3-(methoxyethoxymethylene)-phenyl]-quinazoline] | 
17 | 0.023 | 1 to 10 | 1.53 | OCc1ccc(-c2ccc3ncnc(Nc4ccc(OCc5cccc(F)c5)c(Cl)c4)c3c2)o1 [Example 27, 4-[3-chloro-4-(3-fluorobenzyloxy)-phenylamino]-6-(5-hydroxymethyl-furan-2-yl)-quinazoline] | IC50 [2, 4]: 1.03 µM
18 | 0.049 | 1 to 10 | 2.03 | CS(=O)(=O)OCc1ccc(-c2ccc3ncnc(Nc4ccc(OCc5cccc(F)c5)c(Cl)c4)c3c2)o1 [Example 28, 4-[3-chloro-4-(3-fluorobenzyloxy)-phenylamino]-6-(5-methanesulfonyloxymethylene-furan-2-yl)-quinazoline] | 
19 |  | 1 to 10 |  | CN(C)Cc1ccc(-c2ccc3ncnc(Nc4ccc(OCc5cccc(F)c5)c(Cl)c4)c3c2)o1 [Example 29, 4-[3-chloro-4-(3-flurobenzyloxy)-phenylamino]-6-(5-dimethylaminomethyl-furan-2-yl)-quinazoline] | 
20 | 0.24 | 1 to 10 | 9.26 | COc1cc2ncnc(Nc3ccc(OCc4cccc(F)c4)c(Cl)c3)c2cc1OCCCN1CCOCC1 [Example 30, 4-[3-chloro-4-(3-fluorobenzyloxy)-phenylamino]-6-(3-(4-morpholino)propoxy)-7-methoxy-quinazoline] | 

Row | SMILES | IC50 [1] [µM] | IC50 [2, 5] [µM] | IC50 [2, 6] [µM] | also measured
21 | COCCOc1ccc2ncnc(Nc3ccc(OCc4cccc(F)c4)c(Cl)c3)c2c1 [Example 19] | 0.088 | 1 to 10 | 3.29 | IC50 [2, 4]: 1.7 µM
22 | CC(=O)OCc1cccc(-c2ccc3ncnc(Nc4ccc(OCc5cccc(F)c5)c(Cl)c4)c3c2)c1 [Example 25, 4-[3-chloro-4-(3-fluorobenzyloxy)-phenylamino]-6-(3-acetoxymethyl-phenyl)-quinazoline] | 0.062 | < 1 |  | 
